Read-outs that look alike come from different tables or passages of the source.
Experiments:
Assay in all cases: Greenhouse test, pre-emergence treatment
ALOMY = type: in vivo, Alopecurus myosuroides; conditions: Alopecurus myosuroides, pre-emergence, 480 h, pre-emergence, read-out: observed % activity 20 DAT
Outline: (§1)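 Damage was rated on a 0-100 scale, with 100 meaning no emergence or full destruction of aerial parts. Observed combination effects were set against the additive Colby expectation E=X+Y−(X·Y/100). Spray liquor was water-based, from 10% emulsion concentrates, applied pre-emergence right after sowing in loamy sand (about 3.0% humus). Plants were held at 10-25 °C or 20-35 °C for 2 to 4 weeks.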

ECHCG = type: in vivo, Echinocloa crus-galli; conditions: Echinochloa crus-galli, 480 h, use rate 31.25 g ai/ha, read-out: observed % activity 20 DAT
Outline: as §1

POLCO = type: in vivo, Polygonum convolvulus; conditions: Fallopia convolvulus, 480 h, pre-emergence, read-out: observed % activity 20 DAT
Outline: as §1

SETFA = type: in vivo, Setaria faberi
Outline: as §1

AVEFA = type: in vivo, Avena fatua; conditions: pre-emergence
Description: (§2) The culture containers used were plastic flowerpots containing loamy sand with approximately 3.0% of humus as the substrate. The seeds of the test plants were sown separately for each species.
(§3) For the pre-emergence treatment, the active ingredients, which had been suspended or emulsified in water, were applied directly after sowing by means of finely distributing nozzles. The containers were irrigated gently to promote germination and growth and subsequently covered with transparent plastic hoods until the plants had rooted. This cover caused uniform germination of the test plants, unless this had been impaired by the active ingredients.
(§4) Depending on the species, the plants were kept at 10-25° C. or 20-35° C., respectively.
(§5) The test period extended over 2 to 4 weeks. During this time, the plants were tended, and their response to the individual treatments was evaluated.
(§6) Evaluation was carried out using a scale from 0 to 100. 100 means no emergence of the plants, or complete destruction of at least the aerial moieties, and 0 means no damage, or normal course of growth. A moderate herbicidal activity is given at values of at least 60, a good herbicidal activity is given at values of at least 70, and a very good herbicidal activity is given at values of at least 85.
(§7) The respective stated components a and b, and if appropriate, c were formulated as a 10% by weight strength emulsion concentrate and, with addition of the amount of solvent system, introduced into the spray liquor used for applying the active compound.
(§8) In the examples, the solvent used was water.
(§9) In the examples below, using the method of S. R. Colby (1967) “Calculating synergistic and antagonistic responses of herbicide combinations”, Weeds 15, p. 22ff., the value E, which is expected if the activity of the individual active compounds is only additive, was calculated. E=X+Y−(X·Y/100) where • X=percent activity using active compound a at an application rate A; • Y=percent activity using active compound b at an application rate B; • E=expected activity (in %) by a+b at application rates A+B.
(§10) If the value found experimentally is higher than the value E calculated according to Colby, a synergistic effect is present.

BRADC = type: in vivo, Brachiaria decumbens; conditions: Urochloa decumbens, pre-emergence, 480 h, pre-emergence, read-out: observed % activity 20 DAT
Description: as §2, §3, §4, §5, §6, §7, §8, §9, §10

EPHHL = type: in vivo, Euphorbia heterophylla; conditions: Euphorbia heterophylla, pre-emergence, 480 h, pre-emergence, 250 g ai/ha; read-out: observed % activity 20 DAT
Outline: as §1

GERPU = type: in vivo, Geranium pusillum; conditions: Geranium pusillum, pre-emergence, 480 h, pre-emergence, read-out: observed % activity 20 DAT
Outline: as §1

KCHSC = type: in vivo, Kochia scoparia; conditions: Bassia scoparia, 480 h, pre-emergence, read-out: observed % activity 20 DAT
Outline: as §1

LOLMU = type: in vivo, Lolium multiflorum; conditions: Lolium multiflorum, pre-emergence, 480 h, pre-emergence, read-out: observed % activity 20 DAT
Outline: as §1

PHACA = type: in vivo, Phalaris canariensis; conditions: pre-emergence, pre-emergence
Outline: as §1

COCC(C)N(C(=O)CCl)c1c(C)csc1C (stereo not shown) [Dimethenamid, dimethenamid]
pest or weed control at 125 g/ha (ALOMY; 125 g ai/ha): 25% | pest or weed control at 500 g/ha (ALOMY; 500 g ai/ha): 75% | pest or weed control at 62.5 g/ha (ALOMY; use rate 62.5 g ai/ha, 20 DAT): 0% | inhibition at 62.5 g/ha (ALOMY; use rate 62.5 g ai/ha): 0% | inhibition at 125 g/ha (ALOMY; use rate 125 g ai/ha): 35% | pest or weed control at 31.25 g/ha (ECHCG; 20 DAT): 98% | inhibition at 31.25 g/ha (ECHCG): 98% | pest or weed control at 31.25 g/ha (POLCO; use rate 31.25 g ai/ha, 20 DAT): 0% | pest or weed control at 62.5 g/ha (POLCO; use rate 62.5 g ai/ha, 20 DAT): 0% | pest or weed control at 125 g/ha (POLCO; use rate 125 g ai/ha, 20 DAT): 0% | inhibition at 31.25 g/ha (POLCO; use rate 31.25 g ai/ha): 0% | inhibition at 62.5 g/ha (POLCO; use rate 62.5 g ai/ha): 0% | inhibition at 125 g/ha (POLCO; use rate 125 g ai/ha): 0% | inhibition at 15.625 g/ha (SETFA; Setaria faberi, 480 h, use rate 15.625 g ai/ha, read-out: observed % activity 20 DAT): 85% | inhibition at 31.25 g/ha (SETFA; Setaria faberi, 480 h, use rate 31.25 g ai/ha, read-out: observed % activity 20 DAT): 98% | observed % activity 20 DAT (SETFA; use rate 31.25 g ai/ha, 20 DAT): 98% | observed % activity 20 DAT (AVEFA; 55 g ai/ha): 95% | observed % activity 20 DAT (AVEFA; 250 g ai/ha): 85% | pest or weed control at 125 g/ha (BRADC; 125 g ai/ha): 98% | pest or weed control at 250 g/ha (BRADC; 250 g ai/ha): 98% | pest or weed control at 500 g/ha (BRADC; 500 g ai/ha): 98% | pest or weed control at 250 g/ha (EPHHL): 25% | pest or weed control at 250 g/ha (GERPU; 250 g ai/ha): 98% | inhibition at 15.625 g/ha (GERPU; use rate 15.625 g ai/ha): 50% | inhibition at 31.25 g/ha (GERPU; use rate 31.25 g ai/ha): 70% | pest or weed control at 62.5 g/ha (GERPU; use rate 62.5 g ai/ha, 20 DAT): 85% | inhibition at 62.5 g/ha (GERPU; use rate 62.5 g ai/ha): 85% | pest or weed control at 125 g/ha (GERPU; use rate 125 g ai/ha, 20 DAT): 95% | pest or weed control at 250 g/ha (KCHSC; 250 g ai/ha): 75% | pest or weed control at 31.25 g/ha (KCHSC; use rate 31.25 g ai/ha, 20 DAT): 0% | pest or weed control at 62.5 g/ha (KCHSC; use rate 62.5 g ai/ha, 20 DAT): 0% | pest or weed control at 125 g/ha (KCHSC; use rate 125 g ai/ha, 20 DAT): 0% | inhibition at 31.25 g/ha (KCHSC; use rate 31.25 g ai/ha): 0% | inhibition at 62.5 g/ha (KCHSC; use rate 62.5 g ai/ha): 0% | inhibition at 125 g/ha (KCHSC; use rate 125 g ai/ha): 0% | pest or weed control at 125 g/ha (LOLMU; 125 g ai/ha): 85% | pest or weed control at 250 g/ha (LOLMU; 250 g ai/ha): 98% | pest or weed control at 15.625 g/ha (LOLMU; use rate 15.625 g ai/ha, 20 DAT): 0% | inhibition at 31.25 g/ha (LOLMU; use rate 31.25 g ai/ha): 55% | pest or weed control at 62.5 g/ha (LOLMU; use rate 62.5 g ai/ha, 20 DAT): 85% | inhibition at 62.5 g/ha (LOLMU; use rate 62.5 g ai/ha): 85% | pest or weed control at 125 g/ha (LOLMU; use rate 125 g ai/ha, 20 DAT): 95% | inhibition at 125 g/ha (LOLMU; use rate 125 g ai/ha): 95% | pest or weed control at 125 g/ha (PHACA; Phalaris canariensis, 480 h, 125 g ai/ha, read-out: observed % activity 20 DAT): 70% | pest or weed control at 500 g/ha (PHACA; Phalaris canariensis, 480 h, 500 g ai/ha, read-out: observed % activity 20 DAT): 98% | pest or weed control at 15.625 g/ha (PHACA; Phalaris canariensis, 480 h, use rate 15.625 g ai/ha, 20 DAT, read-out: observed % activity 20 DAT): 10% | pest or weed control at 31.25 g/ha (PHACA; Phalaris canariensis, 480 h, use rate 31.25 g ai/ha, 20 DAT, read-out: observed % activity 20 DAT): 55% | inhibition at 31.25 g/ha (PHACA; Phalaris canariensis, 480 h, use rate 31.25 g ai/ha, read-out: observed % activity 20 DAT): 55% | pest or weed control at 62.5 g/ha (PHACA; Phalaris canariensis, 480 h, use rate 62.5 g ai/ha, 20 DAT, read-out: observed % activity 20 DAT): 65% | pest or weed control at 125 g/ha (PHACA; Phalaris canariensis, 480 h, use rate 125 g ai/ha, 20 DAT, read-out: observed % activity 20 DAT): 80% | inhibition at 125 g/ha (PHACA; Phalaris canariensis, 480 h, use rate 125 g ai/ha, read-out: observed % activity 20 DAT): 80% | observed % activity 20 DAT (PHACA; 125 g ai/ha): 70%

Reference: patent US9999222B2, “Herbicidal combination comprising azines” (BASF SE, priority 2014, dated 2018)
